The source made the active and inactive calls. The rule behind the calls is not given here.
Tests used:
[1] = system: Mus musculus; assay: Anticonvulsant activity in CF1 albino mouse assessed as protection against maximal electroshock-induced seizures at 30 mg/kg, po after 4 hrs; format: functional
[2] = system: Mus musculus; assay: Anticonvulsant activity in CF1 albino mouse assessed as protection against maximal electroshock-induced seizures at 30 mg/kg, po after 0.5 hrs; format: functional
[3] = system: Mus musculus; assay: Neurotoxicity in CF1 albino mouse assessed as motor impairment at 30 mg/kg, po after 0.5 hrs by rotarod test; format: toxicity, organism-based; design: dose 30 mg/kg, route oral; settings: in vivo
[4] = system: Mus musculus; assay: Neurotoxicity in CF1 albino mouse assessed as motor impairment at 30 mg/kg, po after 0.25 hrs by rotarod test; format: toxicity, organism-based; design: dose 30 mg/kg, route oral; settings: in vivo
[5] = system: Mus musculus; assay: Anticonvulsant activity in CF1 albino mouse assessed as inhibition of maximal electroshock-induced seizures at 300 mg/kg, ip after 0.5 hrs; format: functional, organism-based; design: dose 300 mg/kg
[6] = system: Mus musculus; assay: Neurotoxicity in ip dosed CF1 albino mouse assessed as ability to maintain equilibrium for 1 min on […] after 0.5 hrs by rotarod test; format: toxicity, organism-based; settings: in vivo
[7] = system: Mus musculus; assay: Anticonvulsant activity in CF1 albino mouse assessed as protection against maximal electroshock-induced seizures at 30 mg/kg, po after 2 hrs; format: functional
[8] = system: Mus musculus; assay: Neurotoxicity in CF1 albino mouse assessed as motor impairment at 30 mg/kg, po after 2 hrs by rotarod test; format: toxicity, organism-based; design: dose 30 mg/kg, route oral; settings: in vivo
[9] = system: Mus musculus; assay: Neurotoxicity in CF1 albino mouse assessed as motor impairment at 30 mg/kg, po after 4 hrs by rotarod test; format: toxicity, organism-based; design: dose 30 mg/kg, route oral; settings: in vivo
[10] = system: Mus musculus; assay: Neurotoxicity in CF1 albino mouse assessed as motor impairment at 30 mg/kg, po after 1 hr by rotarod test; format: toxicity, organism-based; design: dose 30 mg/kg, route oral; settings: in vivo
[11] = system: Mus musculus; assay: Neurotoxicity in ip dosed CF1 albino mouse assessed as ability to maintain equilibrium for 1 min on […] after 4 hrs by rotarod test; format: toxicity, organism-based; settings: in vivo
[12] = system: Mus musculus; assay: Anticonvulsant activity in CF1 albino mouse assessed as protection against maximal electroshock-induced seizures at 30 mg/kg, po after 1 hr; format: functional
[13] = system: Mus musculus; assay: Anticonvulsant activity in ip dosed CF1 albino mouse assessed as inhibition of maximal electroshock-induced seizures after 4 hrs; format: functional
[14] = system: Mus musculus; assay: Neurotoxicity in CF1 albino mouse assessed as ability to maintain equilibrium for 1 min on […] at 300 mg/kg, ip after 0.5 hrs by rotarod test; format: toxicity, organism-based; design: dose 300 mg/kg, route intraperitoneal; settings: in vivo
[15] = system: Mus musculus; assay: Anticonvulsant activity in CF1 albino mouse assessed as protection against maximal electroshock-induced seizures at 30 mg/kg, po after 0.25 hrs; format: functional
[16] = system: Mus musculus; assay: Neurotoxicity in CF1 albino mouse assessed as ability to maintain equilibrium for 1 min on […] at 300 mg/kg, ip after 4 hrs by rotarod test; format: toxicity, organism-based; design: dose 300 mg/kg, route intraperitoneal; settings: in vivo
[17] = system: Mus musculus; assay: Anticonvulsant activity in ip dosed CF1 albino mouse assessed as inhibition of maximal electroshock-induced seizures after 0.5 hrs; format: functional
[18] = system: Rattus norvegicus; assay: Anticonvulsant activity in po dosed rat assessed as inhibition of maximal electroshock-induced seizures; format: functional
[19] = system: Mus musculus; assay: Anticonvulsant activity in CF1 albino mouse assessed as inhibition of maximal electroshock-induced seizures at 300 mg/kg, ip after 4 hrs; format: functional, organism-based; design: dose 300 mg/kg
[20] = system: Mus musculus; assay: Neurotoxicity in CF1 albino mouse assessed as death at 300 mg/kg, ip after 0.5 hrs by rotarod test; format: toxicity, organism-based; design: dose 300 mg/kg, route intraperitoneal; settings: in vivo
[21] = organism: Mus musculus; assay: Protective index, ratio of TD50 for neurotoxicity in CF1 albino mouse to ED50 for inhibition of maximal electroshock-induced seizures in CF1 albino mouse; format: functional
[22] = system: Mus musculus; assay: Anticonvulsant activity against maximal electroshock-induced seizures in ip dosed CF1 albino mouse assessed as time to peak effect; format: functional
[23] = system: Mus musculus; assay: Anticonvulsant activity in ip dosed CF1 albino mouse assessed as inhibition of subcutaneous pentylenetetrazole-induced seizures; format: functional
[24] = system: Mus musculus; assay: Anticonvulsant activity in ip dosed CF1 albino mouse assessed as inhibition of maximal electroshock-induced seizures; format: functional
[25] = Neurotoxicity in ip dosed CF1 albino mouse assessed as ability to maintain equilibrium for 1 min on […] by rotarod test; format: toxicity, organism-based; settings: in vivo

SMILES | Activity [5] | Activity [6] | Activity [13] | Activity [14] | Activity [16] | Activity [17] | Activity [19] | also measured
O=C1CC(c2ccccc2C(F)(F)F)C(=O)N1CN1CCN(c2ccccc2F)CC1 (stereo not given) | inactive | 100 mg/kg | 30 mg/kg | – | – | – | – | Activity [1]: 25%; Activity [2]: 25%; Activity [3]: Non-toxic; Activity [4]: Non-toxic; Activity [7]: inactive; Activity [8]: Non-toxic; Activity [9]: Non-toxic; Activity [10]: Non-toxic; Activity [11]: 300 mg/kg; Activity [12]: 25%
Cc1ccccc1C1CC(=O)N(CCCN2CCN(c3cccc(C(F)(F)F)c3)CC2)C1=O (stereo not given) | – | – | 100 mg/kg | Non-toxic | Non-toxic | 100 mg/kg | – | Activity [1]: inactive; Activity [15]: inactive; Activity [2]: inactive; Activity [3]: Non-toxic; Activity [4]: Non-toxic; Activity [7]: inactive; Activity [8]: 25%; Activity [9]: Non-toxic; Activity [10]: Non-toxic; Activity [12]: inactive
O=C1CC(c2ccccc2Cl)C(=O)N1CN1CCN(c2cccc(Cl)c2)CC1 (stereo not given) | – | – | – | – | – | – | – | ED50 [18]: 14.2 mg/kg
Cc1ccccc1C1CC(=O)N(CCN2CCN(c3cccc(C(F)(F)F)c3)CC2)C1=O (stereo not given) | – | – | 300 mg/kg | Non-toxic | Non-toxic | 300 mg/kg | – | –
Cc1ccccc1C1CC(=O)N(CN2CCN(c3ccccc3F)CC2)C1=O (stereo not given) | inactive | 300 mg/kg | – | – | Non-toxic | – | inactive | –
O=C1CC(c2ccccc2C(F)(F)F)C(=O)N1CCN1CCN(c2ccccc2)CC1 (stereo not given) | inactive | – | – | Non-toxic | Non-toxic | – | inactive | –
COc1ccccc1N1CCN(CCCN2C(=O)CC(c3ccccc3C)C2=O)CC1 (stereo not given) | inactive | 100 mg/kg | – | – | Non-toxic | – | inactive | –
O=C1CC(c2ccccc2C(F)(F)F)C(=O)N1CCN1CCN(c2cccc(C(F)(F)F)c2)CC1 (stereo not given) | inactive | – | – | Non-toxic | Non-toxic | – | inactive | –
O=C1CC(c2ccccc2C(F)(F)F)C(=O)N1CN1CCN(c2cccc(C(F)(F)F)c2)CC1 (stereo not given) | – | 300 mg/kg | 100 mg/kg | – | Non-toxic | 100 mg/kg | – | –
Cc1ccccc1C1CC(=O)N(CCN2CCN(c3ccccc3)CC2)C1=O (stereo not given) | inactive | 300 mg/kg | – | – | Non-toxic | – | inactive | –
COc1ccccc1N1CCN(CCN2C(=O)CC(c3ccccc3C)C2=O)CC1 (stereo not given) | inactive | 300 mg/kg | – | – | Non-toxic | – | inactive | Activity [20]: Toxic
O=C1CC(c2ccccc2C(F)(F)F)C(=O)N1CCCN1CCN(c2cccc(C(F)(F)F)c2)CC1 (stereo not given) | – | 300 mg/kg | 100 mg/kg | – | – | 30 mg/kg | – | Ratio TD50/ED50 [21]: 2.72; Time [22]: 2 h; Activity [1]: inactive; Activity [15]: inactive; Activity [2]: 25%; Activity [3]: Non-toxic; ED50 [23]: > 350 mg/kg; ED50 [24]: 132 mg/kg; Activity [4]: Non-toxic; Activity [7]: inactive; Activity [8]: Non-toxic; TD50 at 1 min [25]: 360 mg/kg; Activity [9]: Non-toxic; Activity [10]: Non-toxic; Activity [11]: 300 mg/kg; Activity [12]: 25%

— ChEMBL document CHEMBL1137686, “Synthesis and anticonvulsant activity of new N-[(4-arylpiperazin-1-yl)-alkyl] derivatives of 3-phenyl-pyrrolidine-2,5-dione” (Eur J Med Chem, 2009)
